Measurements published in US9873680B2 (Gilead Sciences, Inc., priority 2014, dated 2018).
Read-outs that look alike come from different tables or passages of the source.

How the values were obtained:
[1] = Test B: Cytotoxicity Assay; assay type: cell-based; conditions: human, uninfected MT-4 cells, CellTiter-Glo
Procedure: Test B: Cytotoxicity Assay Compound cytotoxicity and the corresponding CC50 values was determined using the same protocol as described in the antiviral assay (Test A) except that uninfected cells were used.

HIV-IIIb = assay: Test A: Antiviral Assay in MT4 Cells; assay type: cell-based, HIV-1; conditions: for inhibition at 0.2 µM: 0.2 μM drug concentration; for inhibition at 2 µM: 2 μM drug concentration, read-out: Response at 2 μM (percent inhibition of virus-induced cell killing)
Procedure: Test A: Antiviral Assay in MT4 Cells
MT-4 cells were next mixed with HIV-IIIb at an m.o.i of 0.003 for 1 hour, after which time 35 μL of virus/cell mixture (2000 cells) was immediately added to each well containing 40 μL of diluted compound. The plates were then incubated at 37° C. for 5 days. After 5 days of incubation, 25 μl of 2× concentrated CellTiter-Glo™ Reagent (catalog #G7571, Promega Biosciences, Inc., Madison, Wis.) was added to each well containing MT-4 cells. Cell lysis was carried out by incubating at room temperature for 10 min and then chemiluminescence was read.

[2] = Human immunodeficiency virus 1, IIIB, MT4, comparison with previously published compounds, read-out: Response at 0.2 μM (percent inhibition of virus-induced cell killing)
[3] = Human immunodeficiency virus 1, IIIB, MT4, comparison with previously published compounds
[4] = Human immunodeficiency virus 1, MT4, 120 h, MT-4 cells infected with HIV-IIIb, 5 days, values normalized to 100%, average over time, read-out: % inhibition at 0.2 μM (percent inhibition of virus-induced cell killing)

For `NC(=O)c1cc(-c2ccc(C#CC3(O)CCCC3)nc2[C@H](Cc2cc(F)cc(F)c2)NC(=O)Cn2nc(C(F)(F)F)c3c2C(F)(F)[C@@H]2C[C@H]32)ccc1F` [Compound 15B, 5-(2-((S)-1-(2-((3bS,4aR)-5,5-difluoro-3-(trifluoromethyl)-3b,4,4a,5-tetrahydro-1H-cyclopropa[3,4]cyclopenta[1,2-c]pyrazol-1-yl)acetamido)-2-(3,5-difluorophenyl)ethyl)-6-((1-hydroxycyclopentyl)ethynyl)pyridin-3-yl)-2-fluorobenzamide], the CC50 at 5 days [1] was 3.02 µM, the inhibition at 0.2 µM (HIV-IIIb; [2]) was 68% and the inhibition at 2 µM (HIV-IIIb; [3]) was 68%. The inhibition at 0.2 µM (HIV-IIIb; [4]) was 68%.
`NC(=O)c1cc(-c2ccc(C#CC3(O)CCCCC3)nc2[C@H](Cc2cc(F)cc(F)c2)NC(=O)Cn2nc(C(F)(F)F)c3c2C(F)(F)[C@@H]2C[C@H]32)ccc1F` [Compound 16, 5-(2-((S)-1-(2-((3bS,4aR)-5,5-difluoro-3-(trifluoromethyl)-3b,4,4a,5-tetrahydro-1H-cyclopropa[3,4]cyclopenta[1,2-c]pyrazol-1-yl)acetamido)-2-(3,5-difluorophenyl)ethyl)-6-((1-hydroxycyclohexyl)ethynyl)pyridin-3-yl)-2-fluorobenzamide] gave a CC50 at 5 days [1] of 3 µM, an inhibition at 0.2 µM (HIV-IIIb; [2]) of 76% and an inhibition at 2 µM (HIV-IIIb; [3]) of 77%. For the same compound, the inhibition at 0.2 µM (HIV-IIIb; [4]) was 76%.
With `CC(O)(C#Cc1ccc(-c2ccc(F)c(C(N)=O)c2)c([C@H](Cc2cc(F)cc(F)c2)NC(=O)Cn2nc(C(F)(F)F)c3c2C(F)(F)[C@@H]2C[C@H]32)n1)c1ccccc1` (stereo partly drawn) [Compound 17, 5-(2-((S)-1-(2-((3bS,4aR)-5,5-difluoro-3-(trifluoromethyl)-3b,4,4a,5-tetrahydro-1H-cyclopropa[3,4]cyclopenta[1,2-c]pyrazol-1-yl)acetamido)-2-(3,5-difluorophenyl)ethyl)-6-(3-hydroxy-3-phenylbut-1-yn-1-yl)pyridin-3-yl)-2-fluorobenzamide] the CC50 at 5 days [1] was 3.06 µM, the inhibition at 0.2 µM (HIV-IIIb; [2]) was 66% and the inhibition at 2 µM (HIV-IIIb; [3]) was 73%. For the same compound, the inhibition at 0.2 µM (HIV-IIIb; [4]) was 66%.
Work on `Cc1cc(C#Cc2ncc(-c3ccc(F)c(C(N)=O)c3)c([C@H](Cc3cc(F)cc(F)c3)NC(=O)Cn3nc(C(F)(F)F)c4c3C(F)(F)[C@@H]3C[C@H]43)n2)ccn1` [Compound 18C, 5-(4-((S)-1-(2-((3bS,4aR)-5,5-difluoro-3-(trifluoromethyl)-3b,4,4a,5-tetrahydro-1H-cyclopropa[3,4]cyclopenta[1,2-c]pyrazol-1-yl)acetamido)-2-(3,5-difluorophenyl)ethyl)-2-((2-methylpyridin-4-yl)ethynyl)pyrimidin-5-yl)-2-fluorobenzamide] yielded a CC50 at 5 days [1] of 2.31 µM, an inhibition at 0.2 µM (HIV-IIIb; [2]) of 90% and an inhibition at 2 µM (HIV-IIIb; [3]) of 94%. The inhibition at 0.2 µM (HIV-IIIb; [4]) was 90%.
In the case of `Cc1cncc(C#Cc2ncc(-c3ccc(F)c(C(N)=O)c3)c([C@H](Cc3cc(F)cc(F)c3)NC(=O)Cn3nc(C(F)(F)F)c4c3C(F)(F)[C@@H]3C[C@H]43)n2)c1` [Compound 19, 5-(4-((S)-1-(2-((3bS,4aR)-5,5-difluoro-3-(trifluoromethyl)-3b,4,4a,5-tetrahydro-1H-cyclopropa[3,4]cyclopenta[1,2-c]pyrazol-1-yl)acetamido)-2-(3,5-difluorophenyl)ethyl)-2-((5-methylpyridin-3-yl)ethynyl)pyrimidin-5-yl)-2-fluorobenzamide], the CC50 at 5 days [1] was 4.63 µM, the inhibition at 0.2 µM (HIV-IIIb; [2]) was 83% and the inhibition at 2 µM (HIV-IIIb; [3]) was 88%. For the same compound, the inhibition at 0.2 µM (HIV-IIIb; [4]) was 83%.
In the case of `Cn1nc(NS(C)(=O)=O)c2cccc(-c3ccc(C#CC4(O)COC4)nc3[C@H](Cc3cc(F)cc(F)c3)NC(=O)Cn3nc(C(F)(F)F)c4c3C(F)(F)[C@@H]3C[C@H]43)c21` [Compound 20E, 2-((3bS,4aR)-5,5-difluoro-3-(trifluoromethyl)-3b,4,4a,5-tetrahydro-1H-cyclopropa[3,4]cyclopenta[1,2-c]pyrazol-1-yl)-N—((S)-2-(3,5-difluorophenyl)-1-(6-((3-hydroxyoxetan-3-yl)ethynyl)-3-(1-methyl-3-(methylsulfonamido)-1H-indazol-7-yl)pyridin-2-yl)ethyl)acetamide], the CC50 at 5 days [1] was 27.7 µM and the inhibition at 0.2 µM (HIV-IIIb; [4]) was 94%.
Compound `Cc1c(-c2ccc(C#CC3(O)COC3)nc2[C@H](Cc2cc(F)cc(F)c2)NC(=O)Cn2nc(C(F)(F)F)c3c2C(F)(F)[C@@H]2C[C@H]32)ccc2n[nH]c(=O)n12` [Compound 21, 2-((3bS,4aR)-5,5-difluoro-3-(trifluoromethyl)-3b,4,4a,5-tetrahydro-1H-cyclopropa[3,4]cyclopenta[1,2-c]pyrazol-1-yl)-N—((S)-2-(3,5-difluorophenyl)-1-(6-((3-hydroxyoxetan-3-yl)ethynyl)-3-(5-methyl-3-oxo-2,3-dihydro-[1,2,4]triazolo[4,3-a]pyridin-6-yl)pyridin-2-yl)ethyl)acetamide] has a CC50 at 5 days [1] of 11.7 µM and an inhibition at 0.2 µM (HIV-IIIb; [4]) of 100%.
`Cn1nc(NS(C)(=O)=O)c2cccc(-c3ccc(C#CC4(O)CNC4)nc3[C@H](Cc3cc(F)cc(F)c3)NC(=O)Cn3nc(C(F)(F)F)c4c3C(F)(F)[C@@H]3C[C@H]43)c21` [Compound 22C, 2-((3bS,4aR)-5,5-difluoro-3-(trifluoromethyl)-3b,4,4a,5-tetrahydro-1H-cyclopropa[3,4]cyclopenta[1,2-c]pyrazol-1-yl)-N—((S)-2-(3,5-difluorophenyl)-1-(6-((3-hydroxyazetidin-3-yl)ethynyl)-3-(1-methyl-3-(methylsulfonamido)-1H-indazol-7-yl)pyridin-2-yl)ethyl)acetamide] showed a CC50 at 5 days [1] of 17.7 µM and an inhibition at 0.2 µM (HIV-IIIb; [4]) of 93%.
For `CN1CC(O)(C#Cc2ccc(-c3cccc4c(NS(C)(=O)=O)nn(C)c34)c([C@H](Cc3cc(F)cc(F)c3)NC(=O)Cn3nc(C(F)(F)F)c4c3C(F)(F)[C@@H]3C[C@H]43)n2)C1` [Compound 23C, 2-((3bS,4aR)-5,5-difluoro-3-(trifluoromethyl)-3b,4,4a,5-tetrahydro-1H-cyclopropa[3,4]cyclopenta[1,2-c]pyrazol-1-yl)-N—((S)-2-(3,5-difluorophenyl)-1-(6-((3-hydroxy-1-methylazetidin-3-yl)ethynyl)-3-(1-methyl-3-(methylsulfonamido)-1H-indazol-7-yl)pyridin-2-yl)ethyl)acetamide], the CC50 at 5 days [1] was 9.19 µM and the inhibition at 0.2 µM (HIV-IIIb; [4]) was 100%.
Compound `Cn1nc(NS(C)(=O)=O)c2cccc(-c3ccc(C#CC4(O)CCC4)nc3[C@H](Cc3cc(F)cc(F)c3)NC(=O)Cn3nc(C(F)(F)F)c4c3C(F)(F)[C@@H]3C[C@H]43)c21` [Compound 24D, 2-((3bS,4aR)-5,5-difluoro-3-(trifluoromethyl)-3b,4,4a,5-tetrahydro-1H-cyclopropa[3,4]cyclopenta[1,2-c]pyrazol-1-yl)-N—((S)-2-(3,5-difluorophenyl)-1-(6-((1-hydroxycyclobutyl)ethynyl)-3-(1-methyl-3-(methylsulfonamido)-1H-indazol-7-yl)pyridin-2-yl)ethyl)acetamide] has a CC50 at 5 days [1] of 15.8 µM and an inhibition at 0.2 µM (HIV-IIIb; [4]) of 100%.
Compound `Cn1nc(N)c2cccc(-c3ccc(C#CC4(O)CCC4)nc3[C@H](Cc3cc(F)cc(F)c3)NC(=O)Cn3nc(C(F)(F)F)c4c3C(F)(F)[C@@H]3C[C@H]43)c21` [Compound 25, N—((S)-1-(3-(3-amino-1-methyl-1H-indazol-7-yl)-6-((1-hydroxy-cyclobutyl)ethynyl)pyridin-2-yl)-2-(3,5-difluorophenyl)ethyl)-2-((3bS,4aR)-5,5-difluoro-3-(trifluoromethyl)-3b,4,4a,5-tetrahydro-1H-cyclopropa[3,4]cyclopenta[1,2-c]pyrazol-1-yl)acetamide] has a CC50 at 5 days [1] of 9.92 µM and an inhibition at 0.2 µM (HIV-IIIb; [4]) of 91%.
Compound `Cn1nc(NS(C)(=O)=O)c2cccc(-c3ccc(C#CC4(O)CCOCC4)nc3[C@H](Cc3cc(F)cc(F)c3)NC(=O)Cn3nc(C(F)(F)F)c4c3C(F)(F)[C@@H]3C[C@H]43)c21` [Compound 26, 2-((3bS,4aR)-5,5-difluoro-3-(trifluoromethyl)-3b,4,4a,5-tetrahydro-1H-cyclopropa[3,4]cyclopenta[1,2-c]pyrazol-1-yl)-N—((S)-2-(3,5-difluorophenyl)-1-(6-((4-hydroxytetrahydro-2H-pyran-4-yl)ethynyl)-3-(1-methyl-3-(methylsulfonamido)-1H-indazol-7-yl)pyridin-2-yl)ethyl)acetamide] has a CC50 at 5 days [1] of 15.9 µM and an inhibition at 0.2 µM (HIV-IIIb; [4]) of 94%.
`Cn1nc(N)c2cccc(-c3ccc(C#CC4(O)CCOCC4)nc3[C@H](Cc3cc(F)cc(F)c3)NC(=O)Cn3nc(C(F)(F)F)c4c3C(F)(F)[C@@H]3C[C@H]43)c21` [Compound 27, N—((S)-1-(3-(3-amino-1-methyl-1H-indazol-7-yl)-6-((4-hydroxytetrahydro-2H-pyran-4-yl)ethynyl)pyridin-2-yl)-2-(3,5-difluorophenyl)ethyl)-2-((3bS,4aR)-5,5-difluoro-3-(trifluoromethyl)-3b,4,4a,5-tetrahydro-1H-cyclopropa[3,4]cyclopenta[1,2-c]pyrazol-1-yl)acetamide] gave a CC50 at 5 days [1] of 15.8 µM and an inhibition at 0.2 µM (HIV-IIIb; [4]) of 92%.
Work on `Cn1nc(NS(C)(=O)=O)c2cccc(-c3ccc(C#CC4CCOCC4)nc3[C@H](Cc3cc(F)cc(F)c3)NC(=O)Cn3nc(C(F)(F)F)c4c3C(F)(F)[C@@H]3C[C@H]43)c21` [Compound 28B, 2-((3bS,4aR)-5,5-difluoro-3-(trifluoromethyl)-3b,4,4a,5-tetrahydro-1H-cyclopropa[3,4]cyclopenta[1,2-c]pyrazol-1-yl)-N—((S)-2-(3,5-difluorophenyl)-1-(3-(1-methyl-3-(methylsulfonamido)-1H-indazol-7-yl)-6-((tetrahydro-2H-pyran-4-yl)ethynyl)pyridin-2-yl)ethyl)acetamide] yielded a CC50 at 5 days [1] of 6.07 µM and an inhibition at 0.2 µM (HIV-IIIb; [4]) of 92%.
